Patent US10398751B2, “Pharmaceutical compositions of water soluble peptides with poor solubility in isotonic conditions and methods for their use” (STRONGBRIDGE IRELAND LIMITED, priority 2016, dated 2019)
Where a name gives a salt, the structure may show the parent alone.

Columns and labels:
[1] = Solubility screening of veldoreotide acetate (10 mg, incremental volumes of medium, USP definition); format: physicochemical
Text: The solubility of veldoreotide acetate in aqueous media was screened by the following method. A fixed amount of 10 milligrams of the peptide was weighed and dissolved at ambient temperature by increased (incremental) volumes of the tested medium until a complete solubility was observed, i.e, clear/transparent solution and absence of any precipitates (the solubility endpoint values were defined according to USP guidance). Following the results of the screening studies, several media were selected for verification studies based on quantitative assessment of the peptide concentration by HPLC (maximal solubility). The results of the screening study are depicted in Table 1 while the results of the verification studies are included in Table 2.

[2] = system: CHO-cells expression cloned human SST-R5; assay: Growth inhibition of CHO cells; format: cell-based
[3] = Solubility in Tris-HCl and lysine solutions; format: physicochemical
Method: In light of the solubility of veldoreotide acetate in Tris-HCl, the solubility of veldoreotide acetate was tested in solutions containing L-lysine and L-lysine HCl.

Compound `C[C@@H](O)[C@@H]1NC(=O)[C@H](CCCCN)NC(=O)[C@@H](Cc2c[nH]c3ccccc23)NC(=O)[C@H](Cc2c[nH]c3ccccc23)NC(=O)[C@H](Cc2ccccc2)NC(=O)CCCNC(=O)CCCN(CC(N)=O)C(=O)[C@H](Cc2ccccc2)NC1=O` [Veldoreotide Acetate, Cyclo(-γ-aminobutyryl-L-phenylalanyl-L-tryptophanyl-D-tryptophanyl-L-lysyl-L-threonyl-L-phenylalanyl-N-carbamoylmethyl-γ-aminobutyryl), acetate salt] has a solubility ([1]; Acetone (USP), 0.1 ml Freely soluble (0.1 g/ml), 10 mg in Acetone (USP)) of over 100 mg/mL, a solubility ([1]; Acetone (USP), 10 ml Slightly soluble (0.001 g/ml; 1 mg/ml), 10 mg in Acetone (USP)) of over 1 mg/mL and a solubility ([1]; Dextrose 5% (USP), 10 mg in Dextrose 5% (USP), read-out: 0.01 ml Very soluble (1 g/ml)) of under 1000 mg/mL. The solubility ([1]; Dextrose 5% (USP), 10 mg in Dextrose 5% (USP), read-out: 0.5 ml Soluble (0.02 g/ml; 20 mg/ml)) was over 20 mg/mL, the solubility ([1]; Dextrose 5% (USP), 10 mg in Dextrose 5% (USP), read-out: 1 ml Sparingly soluble (0.01 g/ml; 10 mg/ml)) was over 10 mg/mL and the solubility ([1]; Dextrose 5% (USP), 0.1 ml Freely soluble (0.1 g/ml), 10 mg in Dextrose 5% (USP)) was over 100 mg/mL. The solubility ([1]; Dextrose 5% (USP), 10 ml Slightly soluble (0.001 g/ml; 1 mg/ml), 10 mg in Dextrose 5% (USP)) was over 1 mg/mL, the solubility ([1]; Ethanol (USP), 10 mg in Ethanol (USP), read-out: 0.01 ml Very soluble (1 g/ml)) was under 1000 mg/mL and the solubility ([1]; Ethanol (USP), 10 mg in Ethanol (USP), read-out: 0.5 ml Soluble (0.02 g/ml; 20 mg/ml)) was over 20 mg/mL. For the same compound, the solubility ([1]; Ethanol (USP), 10 mg in Ethanol (USP), read-out: 1 ml Sparingly soluble (0.01 g/ml; 10 mg/ml)) was over 10 mg/mL, the solubility ([1]; Ethanol (USP), 0.1 ml Freely soluble (0.1 g/ml), 10 mg in Ethanol (USP)) was over 100 mg/mL and the solubility ([1]; Ethanol (USP), 10 ml Slightly soluble (0.001 g/ml; 1 mg/ml), 10 mg in Ethanol (USP)) was over 1 mg/mL. It also gave a solubility ([1]; Lactic acid 37 mM, Mannitol 250 mM, pH 4.3, 10 mg in Lactic acid 37 mM, Mannitol 250 mM (pH 4.3), read-out: 0.01 ml Very soluble (1 g/ml)) of under 1000 mg/mL, a solubility ([1]; Lactic acid 37 mM, Mannitol 250 mM, pH 4.3, 10 mg in Lactic acid 37 mM, Mannitol 250 mM (pH 4.3), read-out: 0.5 ml Soluble (0.02 g/ml; 20 mg/ml)) of over 20 mg/mL and a solubility ([1]; Lactic acid 37 mM, Mannitol 250 mM, pH 4.3, 10 mg in Lactic acid 37 mM, Mannitol 250 mM (pH 4.3), read-out: 1 ml Sparingly soluble (0.01 g/ml; 10 mg/ml)) of over 10 mg/mL. The solubility ([1]; Lactic acid 37 mM, Mannitol 250 mM, pH 4.3, 0.1 ml Freely soluble (0.1 g/ml), 10 mg in Lactic acid 37 mM, Mannitol 250 mM (pH 4.3)) was over 100 mg/mL, the solubility ([1]; Lactic acid 37 mM, Mannitol 250 mM, pH 4.3, 10 ml Slightly soluble (0.001 g/ml; 1 mg/ml), 10 mg in Lactic acid 37 mM, Mannitol 250 mM (pH 4.3)) was over 1 mg/mL and the solubility ([1]; PBS, pH 7.2, 10 mg in PBS pH 7.2, read-out: 0.01 ml Very soluble (1 g/ml)) was under 1000 mg/mL. It also gave a solubility ([1]; PBS, pH 7.2, 10 mg in PBS pH 7.2, read-out: 0.5 ml Soluble (0.02 g/ml; 20 mg/ml)) of under 20 mg/mL, a solubility ([1]; PBS, pH 7.2, 10 mg in PBS pH 7.2, read-out: 1 ml Sparingly soluble (0.01 g/ml; 10 mg/ml)) of under 10 mg/mL and a solubility ([1]; PBS, pH 7.2, 0.1 ml Freely soluble (0.1 g/ml), 10 mg in PBS pH 7.2) of under 100 mg/mL. The solubility ([1]; PBS, pH 7.2, 10 ml Slightly soluble (0.001 g/ml; 1 mg/ml), 10 mg in PBS pH 7.2) was under 1 mg/mL, the solubility ([1]; Propylene glycol, 10 mg in Propylene glycol, read-out: 0.01 ml Very soluble (1 g/ml)) was under 1000 mg/mL and the solubility ([1]; Propylene glycol, 10 mg in Propylene glycol, read-out: 0.5 ml Soluble (0.02 g/ml; 20 mg/ml)) was over 20 mg/mL. It also gave a solubility ([1]; Propylene glycol, 10 mg in Propylene glycol, read-out: 1 ml Sparingly soluble (0.01 g/ml; 10 mg/ml)) of over 10 mg/mL, a solubility ([1]; Propylene glycol, 0.1 ml Freely soluble (0.1 g/ml), 10 mg in Propylene glycol) of over 100 mg/mL and a solubility ([1]; Propylene glycol, 10 ml Slightly soluble (0.001 g/ml; 1 mg/ml), 10 mg in Propylene glycol) of over 1 mg/mL. It also gave a solubility ([1]; Saline (USP) (0.9% NaCl), pH 4.5, 10 mg in Saline (USP) (0.9% NaCl) pH 4.5, read-out: 0.01 ml Very soluble (1 g/ml)) of under 1000 mg/mL, a solubility ([1]; Saline (USP) (0.9% NaCl), pH 4.5, 10 mg in Saline (USP) (0.9% NaCl) pH 4.5, read-out: 0.5 ml Soluble (0.02 g/ml; 20 mg/ml)) of under 20 mg/mL and a solubility ([1]; Saline (USP) (0.9% NaCl), pH 4.5, 10 mg in Saline (USP) (0.9% NaCl) pH 4.5, read-out: 1 ml Sparingly soluble (0.01 g/ml; 10 mg/ml)) of under 10 mg/mL. It also gave a solubility ([1]; Saline (USP) (0.9% NaCl), pH 4.5, 0.1 ml Freely soluble (0.1 g/ml), 10 mg in Saline (USP) (0.9% NaCl) pH 4.5) of under 100 mg/mL, a solubility ([1]; Saline (USP) (0.9% NaCl), pH 4.5, 10 ml Slightly soluble (0.001 g/ml; 1 mg/ml), 10 mg in Saline (USP) (0.9% NaCl) pH 4.5) of under 1 mg/mL and a solubility ([1]; caprylic acid, 10 mg in Caprylic acid, read-out: 0.01 ml Very soluble (1 g/ml)) of under 1000 mg/mL. It also gave a solubility ([1]; caprylic acid, 10 mg in Caprylic acid, read-out: 0.5 ml Soluble (0.02 g/ml; 20 mg/ml)) of over 20 mg/mL, a solubility ([1]; caprylic acid, 10 mg in Caprylic acid, read-out: 1 ml Sparingly soluble (0.01 g/ml; 10 mg/ml)) of over 10 mg/mL and a solubility ([1]; caprylic acid, 0.1 ml Freely soluble (0.1 g/ml), 10 mg in Caprylic acid) of under 100 mg/mL. It also gave a solubility ([1]; caprylic acid, 10 ml Slightly soluble (0.001 g/ml; 1 mg/ml), 10 mg in Caprylic acid) of over 1 mg/mL, a solubility ([1]; double distilled water, 10 mg in DDW (Double distilled water), read-out: 0.01 ml Very soluble (1 g/ml)) of under 1000 mg/mL and a solubility ([1]; double distilled water, 10 mg in DDW (Double distilled water), read-out: 0.5 ml Soluble (0.02 g/ml; 20 mg/ml)) of over 20 mg/mL. The solubility ([1]; double distilled water, 10 mg in DDW (Double distilled water), read-out: 1 ml Sparingly soluble (0.01 g/ml; 10 mg/ml)) was over 10 mg/mL, the solubility ([1]; double distilled water, 0.1 ml Freely soluble (0.1 g/ml), 10 mg in DDW (Double distilled water)) was over 100 mg/mL and the solubility ([1]; double distilled water, 10 ml Slightly soluble (0.001 g/ml; 1 mg/ml), 10 mg in DDW (Double distilled water)) was over 1 mg/mL. It also gave a solubility ([1]; glycerol, 10 mg in Glycerol, read-out: 0.01 ml Very soluble (1 g/ml)) of under 1000 mg/mL, a solubility ([1]; glycerol, 10 mg in Glycerol, read-out: 0.5 ml Soluble (0.02 g/ml; 20 mg/ml)) of over 20 mg/mL and a solubility ([1]; glycerol, 10 mg in Glycerol, read-out: 1 ml Sparingly soluble (0.01 g/ml; 10 mg/ml)) of over 10 mg/mL. The solubility ([1]; glycerol, 0.1 ml Freely soluble (0.1 g/ml), 10 mg in Glycerol) was under 100 mg/mL, the solubility ([1]; glycerol, 10 ml Slightly soluble (0.001 g/ml; 1 mg/ml), 10 mg in Glycerol) was over 1 mg/mL and the solubility ([1]; oleic acid, 10 mg in Oleic acid, read-out: 0.01 ml Very soluble (1 g/ml)) was under 1000 mg/mL. For the same compound, the solubility ([1]; oleic acid, 10 mg in Oleic acid, read-out: 0.5 ml Soluble (0.02 g/ml; 20 mg/ml)) was under 20 mg/mL, the solubility ([1]; oleic acid, 10 mg in Oleic acid, read-out: 1 ml Sparingly soluble (0.01 g/ml; 10 mg/ml)) was under 10 mg/mL and the solubility ([1]; oleic acid, 0.1 ml Freely soluble (0.1 g/ml), 10 mg in Oleic acid) was under 100 mg/mL. For the same compound, the solubility ([1]; oleic acid, 10 ml Slightly soluble (0.001 g/ml; 1 mg/ml), 10 mg in Oleic acid) was under 1 mg/mL, the solubility ([1]; refined vegetable oils (olive, cotton, coconut, canola), 10 mg in Refined vegetable oils, Olive, Cotton, Coconut, Canola, read-out: 0.01 ml Very soluble (1 g/ml)) was under 1000 mg/mL and the solubility ([1]; refined vegetable oils (olive, cotton, coconut, canola), 10 mg in Refined vegetable oils, Olive, Cotton, Coconut, Canola, read-out: 0.5 ml Soluble (0.02 g/ml; 20 mg/ml)) was under 20 mg/mL. It also gave a solubility ([1]; refined vegetable oils (olive, cotton, coconut, canola), 10 mg in Refined vegetable oils, Olive, Cotton, Coconut, Canola, read-out: 1 ml Sparingly soluble (0.01 g/ml; 10 mg/ml)) of under 10 mg/mL, a solubility ([1]; refined vegetable oils (olive, cotton, coconut, canola), 0.1 ml Freely soluble (0.1 g/ml), 10 mg in Refined vegetable oils, Olive, Cotton, Coconut, Canola) of under 100 mg/mL and a solubility ([1]; refined vegetable oils (olive, cotton, coconut, canola), 10 ml Slightly soluble (0.001 g/ml; 1 mg/ml), 10 mg in Refined vegetable oils, Olive, Cotton, Coconut, Canola) of under 1 mg/mL. It also gave a solubility ([1]; water for injection (WFI-USP), 10 mg in WFI-USP (water for injection), read-out: 0.01 ml Very soluble (1 g/ml)) of under 1000 mg/mL, a solubility ([1]; water for injection (WFI-USP), 10 mg in WFI-USP (water for injection), read-out: 0.5 ml Soluble (0.02 g/ml; 20 mg/ml)) of over 20 mg/mL and a solubility ([1]; water for injection (WFI-USP), 10 mg in WFI-USP (water for injection), read-out: 1 ml Sparingly soluble (0.01 g/ml; 10 mg/ml)) of over 10 mg/mL. For the same compound, the solubility ([1]; water for injection (WFI-USP), 0.1 ml Freely soluble (0.1 g/ml), 10 mg in WFI-USP (water for injection)) was under 100 mg/mL, the solubility ([1]; water for injection (WFI-USP), 10 ml Slightly soluble (0.001 g/ml; 1 mg/ml), 10 mg in WFI-USP (water for injection)) was over 1 mg/mL and the growth inhibition [2] was “significant growth inhibition”. For the same compound, the solubility ([3]; 20 mM Tris-HCl) was “highly soluble”, the solubility ([3]; Tris-HCl increased to 137 mM or 117 mM NaCl added) was “significantly reduced” and the “effect on solubility of veldoreotide acetate” value ([3]; addition of L-lysine HCl, isotonic media) was “substantially improved”. For the same compound, the “effect on solubility of veldoreotide acetate” value ([3]; solution containing L-lysine) was “did not substantially improve”.
